# Patent publication US20120070493A1, “TARGETED MULTI-EPITOPE DOSAGE FORMS FOR INDUCTION OF AN IMMUNE RESPONSE TO ANTIGENS” (Selecta Biosciences, Inc., priority 2010, published 2012)
# Square brackets hold non-standard residues; d marks the D form. Ends that are not written are not given here.
# Key:
# [1] = system: CD4+/CD45RAlow/CD62Lhigh central memory T-cells; assay: dendritic cell/CD4 T-cell co-culture, multi-color intracellular cytokine analysis; assay type: cell-based, human; settings: for IFN-γ expression in peptide specific central memory T-cells / IL-4 expression in peptide specific central memory T-cells / TNF-α expression in peptide specific central memory T-cells: DC/CD4 co-culture with or without peptide, FIGS. 7 and 8; for co-expression of TNF-α and IFN-γ / co-expression of TNF-α and IL-4: multiple color flow cytometry, FIG. 9
# Experimental: Early central memory T-cells express multiple cytokines (IL-2, TNF-α, IFN-γ) when re-activated with specific peptides, whereas committed effector memory T-cells are thought to selectively express IL-4 for TH2 committed effector memory, and IFN-γ for TH1 committed effector memory. The status of peptide activated memory T-cells was tested using multi-color intracellular cytokine analysis of dendritic cell/CD4 cell co-cultures.
# Human peripheral blood monocytes were isolated using negative-selection magnetic beads (Dynal) and cultured in the presence of GM-CSF and IL-4 for 1 week in order to induce differentiation into dendritic cells. Allogeneic CD4 T cells were isolated using magnetic bead separation (Dynal) and co-cultured in the presence of DCs in the presence or absence of peptide. The protocol for stimulation and analysis from that point is identical to that for PBMC described above in Example 2.
# [2] = system: CD4+/CD45RAlow/CD62Lhigh central memory T-cells (human PBMC); assay type: cell-based; settings: for response of individual peptides and of heterodimeric peptides lacking a cathepsin cleavage site, compared with the response to this peptide: 4 donors, the comparators were the weaker ones, not the labelled peptide; for memory T-cell recall response, influenza epitopes: 5 PBMC donors, FIG. 14
# [3] = system: MHC Class II (HLADP, HLADQ and HLADR alleles); settings: previously described peptide, Virology 326 (2004) 220-230; cited from earlier work
# [4] = system: human PBMC; assay: interferon gamma Elispot, peptide-stimulated PBMC; assay type: cell-based; settings: 10 μM peptide; for memory T-cell response (IFN-γ Elispot spots, normalized to non-stimulated controls): 18 hours, 5 donors, FIG. 22; for number of donors showing a recall: out of 5 donors
# Experimental: The potency of single epitopes and chimeric epitopes have been evaluated by stimulating human PBMC with peptides in vitro for 18 hours and then analyzing the cells by Elispot. Briefly, whole blood was obtained from Research Blood Components (Cambridge). Blood was diluted in phosphate buffered saline (PBS) and then overlaid on top of Ficoll-paque premium (GE Healthcare) in a 50 mL tube. Tubes were spun for 30 minutes, and the transition phase PBMCs collected, diluted in PBS with 10% fetal calf serum (FCS) and spun for 10 minutes. Cells were resuspended in cell freezing media (Sigma) and immediately frozen at −80 C overnight. For long term storage, cells were transferred to liquid nitrogen. Cells were thawed as needed and resuspended in PBS 10% FCS, spun down and resuspended to 1×10^7 cells/mL in culture media (RPMI [cellgro]), supplemented with 10% heat inactivated fetal calf serum (Sigma) l-glutamine, penicillin and streptomycin).
# The Elispot assay was performed using an interferon gamma Elispot kit (Mabtech). Briefly the Elispot was performed by coating 96 well filter plates with an IFN-γ capture antibody, then blocked with complete culture media containing 10% FCS to prevent non-specific binding. PBMC (1×10^6 cells) were plated in the antibody pre-coated Elispot plates with or without 10 μM peptide. Positive control wells were stimulated with 10 μg/mL PHA. Elispot plates were incubated for 18 hours at 37° C. followed by coating with biotinylated anti-IFN-γ secondary antibody for 2 hours at room temperature. Elispot plates were then washed and IFN-γ spots developed using 3-amino-9-ethylcarbazole, dimethylformamide, and hydrogen peroxide in acetate buffer. IFN-γ positive Elispot counts were evaluated by an outside vendor (Zelnet) and the number of spots scored per 10 million cells.
substance,measurement,setting,value
ILMQYIKANSKFIGIPMGLPQSIALSSLMVAQ [TT830pmglpDTt],IFN-γ expression in peptide specific central memory T-cells,[1],increased expression
same,IL-4 expression in peptide specific central memory T-cells,[1],not IL-4
same,TNF-α expression in peptide specific central memory T-cells,[1],increased expression
same,co-expression of TNF-α and IFN-γ,[1],peptide induced co-expression
same,co-expression of TNF-α and IL-4,[1],not co-expression
same,"effect of inclusion of a cathepsin cleavage site on the response, compared with TT830DTt","[2]; human PBMC, 4 μM peptide",enhanced the response
same,recall activity compared with identical peptide without cleavage site (TT830DT),"[2]; human PBMC, 4 μM peptide",better than a peptide identical except without a cleavage site (TT830DT)
same,recall activity compared with individual components TT830 and DT alone,"[2]; human PBMC, 4 μM peptide",more active than its individual components (TT830 and DT) alone
same,"number of activated central memory T-cells (percent CD62L+/IFN-γ+ cells, normalized to non-stimulated)","[2]; human PBMC, 4 μM peptide, 20 donors, FIG. 5",highest response
same,number of donors positive for memory T-cells responding to peptide,"[2]; out of 20 donors, positive if greater than 0.08% responding central memory T-cells, FIG. 6",20/20
TLLYVLFEVkvsvrQSIALSSLMVAQ (TLLYVLFEV[dK][dV][dS][dV][dR]QSIALSSLMVAQ) [AdVkDTt],"response of individual peptides and of heterodimeric peptides lacking a cathepsin cleavage site, compared with the response to this peptide",[2]; 4 μM peptide,weaker response
DFHFEVFNFVPCSI [RSVG162-175],Affinity (HLA Class II type bound),[3],(HLADP)
LIFLARSALILRkvsvrILSIYSTVASSLALAI [AATkABW2],"memory T-cell recall response, influenza epitopes",[2]; 4 μM peptide,positive
VSTYMLTNSELLSLINDkvsvrAGFYHILNNPKASL [VSTkAGF],"memory T-cell response (IFN-γ Elispot spots, normalized to non-stimulated controls)",[4],highest memory T-cell response
same,number of donors showing a recall,[4],5 donors
ILMQYIKANSKFIGIQSIALSSLMVAQAIPLVGEL [TT830DT],IFN-γ expression in peptide specific central memory T-cells,[1],increased expression
same,IL-4 expression in peptide specific central memory T-cells,[1],not IL-4
same,TNF-α expression in peptide specific central memory T-cells,[1],increased expression
ILSIYSTVASSLALAIkvsvrLIFLARSALILR [ABW2kAAT],"memory T-cell recall response, influenza epitopes",[2]; 4 μM peptide,positive
TLLYVLFEVPMGLPILMQYIKANSKFIGI [AdVpTT830],effect of insertion of a cathepsin cleavage site on activity of the AdV epitope,"[2]; human PBMC, 4 μM peptide",eliminated activity of the AdV epitope
ILMQYIKANSKFIGI QSIALSSLMVAQTLLYVLFEV (ILMQYIKANSKFIGIQSIALSSLMVAQTLLYVLFEV) [TT830DTAdV],number of donors showing a recall response,[2],4 donors
EKIVLLFAIVSLVKSDQICI [ABW9],"memory T-cell recall response, influenza epitopes",[2]; 4 μM peptide,not
TLLYVLFEVkvsvr NNFTVSFWLRVPKVSASHLET (TLLYVLFEV[dK][dV][dS][dV][dR]NNFTVSFWLRVPKVSASHLET) [AdVkTT950],"response of individual peptides and of heterodimeric peptides lacking a cathepsin cleavage site, compared with the response to this peptide",[2]; 4 μM peptide,weaker response
NAELLVALENQHTIkvsvrLIFLARSALILR (NAELLVALENQHTIKVSVRLIFLARSALILR) [3120tkAAT],"memory T-cell recall response, influenza epitopes",[2]; 4 μM peptide,positive
VWLYNQIALQLKNHAkvsvrAGFYHILNNPKASL [VWLkAGF],"memory T-cell response (IFN-γ Elispot spots, normalized to non-stimulated controls)",[4],highest memory T-cell response
same,number of donors showing a recall,[4],5 donors
ILMQYIKANSKFIGIQSIALSSLMVAQ [TT830DTt],co-expression of TNF-α and IFN-γ,[1],peptide induced co-expression
same,co-expression of TNF-α and IL-4,[1],not co-expression
CSQRSKFLLMDALKLkvsvrLIFLARSALILR [AAWkAAT],"memory T-cell recall response, influenza epitopes",[2]; 4 μM peptide,positive
